Experimental data as given in US20070259879A1, “Piperazine and piperidine biaryl derivatives” (priority 2006, published 2007).

What follows are molecules tested on HIV-1 pseudotyped virus (assay: HIV-1 pseudotyped virus assay (luciferase reporter gene, single cycle of infection)). Settings: Human immunodeficiency virus 1, CCR5, 72 h, read-out: Activity (antiviral activity, IC50).
Format: cell-based
Text: In this example are illustrated experimental procedures for determining biological activity, such as antiviral activity. For determining biological activity, an HIV-1 infection assay was used to determine the antiviral potency for compounds of the present invention.
For determining biological activity, an HIV-1 pseudotyped virus assay was used to determine the respective antiviral potencies of each compound tested in the assay for comparison. The pseudotyped assay scores for a reduction in infection as indicated by decreased signal from the reporter gene encoding a luciferase enzyme (“reporter gene”). The assay employs cell lines expressing CD4 and either of the primary chemokine receptors (CCR5 or CXCR4) that HIV uses as a co-receptor (“target cells”). Pseudotyped virus was prepared by co-transfection of 293T cells with: 1) a plasmid construct carrying the HIV-1 envelope of choice, in combination with 2) a pseudotyped virus backbone construct in which (a) envelope expression has been abrogated due to a frameshift in the envelope sequence, and (b) the reporter gene replaces nef. Expression of HIV-1 envelope on 293T packaging cells results in the production of a pseudotyped virus carrying the reporter gene that is capable of a single cycle of infection.
The compounds of the present invention being tested for antiviral activity were serially diluted and dose responses determined in duplicate in two separate experiments. The compounds to be tested were added directly to the plated, target cells, followed by the addition of pseudotyped virus described above. The cells were cultured for three days prior harvest. Media and compound were removed, the cell monolayer was washed, lysed by detergent, and then frozen at −80 degrees C. for a minimum of 30 minutes. Following thawing and acclimation to room temperature, luciferase production was quatified by injecting 100 […]I of a substrate (of the enzyme encoded by the reporter gene) into each well followed by detecting the signal (light emitted from the interaction between the enzyme and substrate) after 5 seconds. In the pseudotyped assay, a 50% reduction in signal is significant, and provides the primary cutoff value for assessing antiviral activity (“IC50” is defined as the dilution resulting in a 50% reduction in enzymatic activity as interpolated from a titration curve). Representative compounds according to the present invention, and their antiviral activity, are illustrated in Table 3.
`C[C@@H]1CN(C(=O)c2ccccc2)CCN1S(=O)(=O)c1ccc(-c2csnn2)cc1` [Example 134, [(R)-3-methyl-4-(4-[1,2,3]thiadiazol-4-yl-benzenesulfonyl)-piperazin-1-yl]-phenyl-methanone] gave an IC50 of over 5 µM. `CC1CN(C(=O)c2ccccc2)CCN1S(=O)(=O)c1ccc(-c2ccc3ccccc3n2)s1` (stereo not shown) [Example 135, (3-methyl-4-(5-(quinolin-2-yl)thiophen-2-ylsulfonyl)piperazin-1-yl)(phenyl)methanone] gave an IC50 of over 5 µM. Molecule `Cc1ccc(C#N)c(-c2ccc(S(=O)(=O)N3CCN(C(=O)c4ccccc4)CC3C)s2)n1` (stereo not shown) [Example 136, 2-(5-(4-benzoyl-2-methylpiperazin-1-ylsulfonyl)thiophen-2-yl)-6-methylnicotinonitrile] has an IC50 of over 5 µM. For `Cc1cccc(-c2ccc(S(=O)(=O)N3CCN(C(=O)c4ccccc4)CC3C)s2)n1` (stereo not shown) [Example 137, (3-methyl-4-(5-(6-methylpyridin-2-yl)thiophen-2-ylsulfonyl)piperazin-1-yl)(phenyl)methanone], the IC50 was over 5 µM. `Cc1ccnc(-c2ccc(S(=O)(=O)N3CCN(C(=O)c4ccccc4)CC3C)s2)c1` (stereo not shown) [Example 138, (3-methyl-4-(5-(4-methylpyridin-2-yl)thiophen-2-ylsulfonyl)piperazin-1-yl)(phenyl)methanone] gave an IC50 of over 5 µM. Work on `Cc1cccnc1-c1ccc(S(=O)(=O)N2CCN(C(=O)c3ccccc3)CC2C)s1` (stereo not shown) [Example 139, (3-methyl-4-(5-(3-methylpyridin-2-yl)thiophen-2-ylsulfonyl)piperazin-1-yl)(phenyl)methanone] yielded an IC50 of over 5 µM. For `CC1CN(C(=O)c2ccccc2)CCN1S(=O)(=O)c1ccc(-c2ncccn2)s1` (stereo not shown) [Example 141, (3-methyl-4-(5-(pyrimidin-2-yl)thiophen-2-ylsulfonyl)piperazin-1-yl)(phenyl)methanone], the IC50 was under 5 µM. Work on `CC1CN(C(=O)c2ccccc2)CCN1S(=O)(=O)c1ccc(-c2cccs2)s1` (stereo not shown) [Example 142, (4-(2,2′-bithiophen-5-ylsulfonyl)-3-methylpiperazin-1-yl)(phenyl)methanone] yielded an IC50 of under 5 µM. With `CC1CN(C(=O)c2ccccc2)CCN1S(=O)(=O)c1ccc(-c2ccc(-c3ccon3)s2)s1` (stereo not shown) [Example 143, (4-(5′-(isoxazol-3-yl)-2,2′-bithiophen-5-ylsulfonyl)-3-methylpiperazin-1-yl)(phenyl)methanone] the IC50 was over 5 µM. `CC1CN(C(=O)c2ccccc2)CCN1S(=O)(=O)c1ccc(-c2ccc(-c3ccno3)s2)s1` (stereo not shown) [Example 144, (4-(5′-(isoxazol-5-yl)-2,2′-bithiophen-5-ylsulfonyl)-3-methylpiperazin-1-yl)(phenyl)methanone] gave an IC50 of under 5 µM. In the case of `CC1CN(C(=O)c2ccccc2)CCN1S(=O)(=O)c1ccc(-c2ccccc2)s1` (stereo not shown) [Example 145, (3-methyl-4-(5-phenylthiophen-2-ylsulfonyl)piperazin-1-yl)(phenyl)methanone], the IC50 is reported as over 5 µM. For `Cc1ccc(-c2ccc(S(=O)(=O)N3CCN(C(=O)c4ccccc4)CC3C)s2)nn1` (stereo not shown) [Example 146, (3-methyl-4-(5-(6-methylpyridazin-3-yl)thiophen-2-ylsulfonyl)piperazin-1-yl)(phenyl)methanone], the IC50 was over 5 µM. `CC1CN(C(=O)c2ccccc2)CCN1S(=O)(=O)c1ccc(-c2ccc(C#N)cn2)s1` (stereo not shown) [Example 147] was tested, and the IC50 was under 5 µM. `CC1CN(C(=O)c2ccccc2)CCN1S(=O)(=O)c1ccc(-c2ccncn2)s1` (stereo not shown) [Example 148, (3-methyl-4-(5-(pyrimidin-4-yl)thiophen-2-ylsulfonyl)piperazin-1-yl)(phenyl)methanone] gave an IC50 of over 5 µM. `CC1CN(C(=O)c2ccccc2)CCN1S(=O)(=O)c1ccc(-c2cccnc2)s1` (stereo not shown) [Example 150, (3-methyl-4-(5-(pyridin-3-yl)thiophen-2-ylsulfonyl)piperazin-1-yl)(phenyl)methanone] showed an IC50 of over 5 µM. With `CC1CN(C(=O)c2ccccc2)CCN1S(=O)(=O)c1ccc(-c2ncnc3ccsc23)s1` (stereo not shown) [Example 151, (3-methyl-4-(5-(thieno[3,2-d]pyrimidin-4-yl)thiophen-2-ylsulfonyl)piperazin-1-yl)(phenyl)methanone] the IC50 was over 5 µM. With `CC1CN(C(=O)c2ccccc2)CCN1S(=O)(=O)c1ccc(-c2cc(-n3ccnc3)ncn2)s1` (stereo not shown) [Example 152, (4-(5-(6-(1H-imidazol-1-yl)pyrimidin-4-yl)thiophen-2-ylsulfonyl)-3-methylpiperazin-1-yl)(phenyl)methanone] the IC50 was over 5 µM. `CC1CN(C(=O)c2ccccc2)CCN1S(=O)(=O)c1ccc(-c2ccncc2)s1` (stereo not shown) [Example 153, (3-methyl-4-(5-(pyridin-4-yl)thiophen-2-ylsulfonyl)piperazin-1-yl)(phenyl)methanone] gave an IC50 of over 5 µM. For `CC1CN(C(=O)c2ccccc2)CCN1S(=O)(=O)c1ccc(-c2nncc3ccccc23)s1` (stereo not shown) [Example 154, (3-methyl-4-(5-(phthalazin-1-yl)thiophen-2-ylsulfonyl)piperazin-1-yl)(phenyl)methanone], the IC50 was over 5 µM. Work on `CC(=O)c1cccc(-c2ccc(S(=O)(=O)N3CCN(C(=O)c4ccccc4)CC3C)s2)n1` (stereo not shown) [Example 155, 1-(6-(5-(4-benzoyl-2-methylpiperazin-1-ylsulfonyl)thiophen-2-yl)pyridin-2-yl)ethanone] yielded an IC50 of over 5 µM. `CC1CN(C(=O)c2ccccc2)CCN1S(=O)(=O)c1ccc(-c2ccc(-c3ccccc3)nn2)s1` (stereo not shown) [Example 156, (3-methyl-4-(5-(6-phenylpyridazin-3-yl)thiophen-2-ylsulfonyl)piperazin-1-yl)(phenyl)methanone] gave an IC50 of over 5 µM. Molecule `CC1CN(C(=O)c2ccccc2)CCN1S(=O)(=O)c1ccc(-c2ncccc2C(F)(F)F)s1` (stereo not shown) [Example 157, (3-methyl-4-(5-(3-(trifluoro-methyl)pyridin-2-yl)thiophen-2-ylsulfonyl)piperazin-1-yl)(phenyl)methanone] has an IC50 of over 5 µM. `Cc1nc2cc(-c3ccc(S(=O)(=O)N4CCN(C(=O)c5ccccc5)CC4C)s3)ccc2s1` (stereo not shown) [Example 158, (3-methyl-4-(5-(2-methylbenzo[d]thiazol-5-yl)thiophen-2-ylsulfonyl)piperazin-1-yl)(phenyl)methanone] showed an IC50 of over 5 µM. `C[C@@H]1CN(C(=O)c2ccccc2)CCN1S(=O)(=O)c1ccc(-c2csnn2)s1` [Example 165, [(R)-3-Methyl-4-(5-[1,2,3]thiadiazol-4-yl-thiophene-2-sulfonyl)-piperazin-1-yl]-phenyl-methanone] gave an IC50 of over 5 µM. With `CC1CN(C(=O)c2ccccc2)CCN1S(=O)(=O)c1ccc(-c2cnco2)cc1` (stereo not shown) [Example 166, [3-Methyl-4-(4-oxazol-5-yl-benzenesulfonyl)-piperazin-1-yl]-phenyl methanone] the IC50 was over 5 µM. `C[C@@H]1CN(C(=O)c2ccccc2)CCN1S(=O)(=O)c1ccc(-c2cc(C(F)(F)F)on2)s1` [Example 167, [(R)-3-Methyl-4-(5-[(5-trifluoromethyl)-isoxazol-3-yl]-thiophene-2-sulfonyl)-piperazin-1-yl]-phenyl-methanone] was tested, and the IC50 was over 5 µM. With `C[C@@H]1CN(C(=O)c2ccccc2)CCN1S(=O)(=O)c1ccc(-c2ccccn2)s1` [Example 168, [(R)-3-Methyl-4-(5-pyridinyl-2-yl-thiophene-2-sulfonyl)-piperazin-1-yl]-phenyl-methanone] the IC50 was over 5 µM. `CC1CN(C(=O)c2ccccc2)CCN1C(=O)C(=O)c1ccc(-c2ccn[nH]2)cc1` (stereo not shown) [Example 169, 1-(4-Benzoyl-2-methyl-piperazin-1-yl)-2-[4-(2H-pyrazol-3-yl)-phenyl]-ethane-1,2-dione] showed an IC50 of under 5 µM.
